Results as given in US11884685B2, “Rhenium complexes and methods of use for treating cancer” (CORNELL UNIVERSITY, priority 2018, dated 2024).

How the values were obtained:
[1] = system: A2780 (ovarian cancer) cells; experiment: MTT cell viability (cytotoxicity); assay type: cell-based; conditions: 48 hours incubation
Experimental: (§1) All compounds were dissolved in PBS at pH 7.4 to prepare 1-2 mM stock solutions. For cell viability studies, all cells were grown to 80-90% confluence, detached with trypsin/EDTA, seeded in 96-well plates at 4000-8000 cells/well in 100 μL of growth media, and incubated for 24 hours. The medium was removed and replaced with fresh medium (200 μL) containing varying dilutions of either the rhenium compounds, cisplatin, or media. The cells were then incubated for 48 hours. The medium was removed from the wells, and 3-(4,5-dimethylthiazol-2-yl)-[…] (MTT) in DMEM, RPMI, or MEM (200 μL, 1 mg/mL) was added. The additional 48 hours incubation was performed to ensure that the cells were in the logarithmic growth phase and that the cells had adequate time to regrow after exposure to the complexes. After 4 hours, the MTT/DMEM, RPMI, or MEM solution was removed, and the formazan crystals were dissolved in 200 μL of an 8:1 mixture of DMSO and pH 10 glycine buffer. The absorbance at 570 nm in each well was measured using a BioTek Synergy HT plate reader. Cell viability was determined by normalizing the absorbance of the treated wells to untreated wells. The % viability data shown is an average of three independent experiments with six replicates per concentration

[2] = system: A2780CP70 (cisplatin-resistant ovarian cancer) cells; experiment: MTT cell viability (cytotoxicity); assay type: cell-based; conditions: 48 hours incubation, read-out: IC50 A2780 CP70 (cisplatin-resistant ovarian cancer)
Experimental: as §1

A549 (lung cancer) cells = experiment: MTT cell viability (cytotoxicity); assay type: cell-based; conditions: 48 hours incubation
Experimental: as §1

HEK293 (kidney) cells = experiment: MTT cell viability (cytotoxicity); assay type: cell-based; conditions: 48 hours incubation, non-cancer cell line
Experimental: as §1

[3] = system: HeLa (cervical cancer) cells; experiment: MTT cell viability (cytotoxicity); assay type: cell-based; conditions: 48 hours incubation
Experimental: as §1

A2780 cells = system: A2780 cells
Source text: (§2) Salubrinal operates by inhibiting dephosphorylation of the master regulatory protein eukaryotic initiation factor 2α (eIF2α), an integral component of the UPR. […] Next, the downstream effects of eIF2α phosphorylation were investigated. The most immediate and pronounced effect of eIF2α phosphorylation is the inhibition of translation (S. R. Kimball, Int. J. Biochem. Cell Biol. 1999, 31, 25-29).

[4] = system: mutant MEF cell line incapable of eIF2α phosphorylation; conditions: mutant cells after treatment
Source text: as §2

[5] = system: eIF2α phosphorylation, ATF4, CHOP in A2780 cells
Source text: as §2
(§3) Hyperphosphorylation of eIF2α can lead to apoptosis via upregulation of the stress-related transcription factors ATF4 and CHOP (H. Matsumoto et al., Biol. Open 2013, 2, 1084-1090). […] Phosphorylation of eIF2α also results in cell cycle arrest in the G1 phase (J. W. Brewer et al., Proc. Natl. Acad. Sci. U.S.A. 2000, 97, 12625-12630).

cells = conditions: vs untreated cells
Source text: as §3

HeLa cells [6] = conditions: 5 μM, within 30 minutes, vs untreated cells
Source text: Phosphorylation of eIF2α often occurs due to the accumulation of misfolded proteins.

[7] = system: National Cancer Institute (NCI)-60 cell line panel
[8] = system: cytochrome c release from the mitochondria; conditions: flow cytometry
HeLa cells [9] = system: HeLa cells
LC3 in A2780 cells = conditions: after 24 hours
[10] = system: proteasome inhibition, HSP90 inhibition, reactive oxygen species generation

Row | Molecule | IC50 [1] [nM] | IC50 [2] [µM] | IC50 (A549 (lung cancer) cells) [µM] | IC50 (HEK293 (kidney) cells) [nM] | IC50 [3] [µM] | puromycin incorporation (translation) (A2780 cells; 5 μM, as early as 2 hour post incubation, vs untreated controls) | factor of increase in activity in presence of salubrinal (A2780 cells; 25 μM salubrinal) | translation levels in eIF2α mutant MEF cells [4] | ATF4 and CHOP expression ([5]; Western blot) | eIF2α phosphorylation ([5]; as little as 2 hours after exposure) | increase in population of cells in the G1 phase (cells) [%] | fluorescence intensity of ThT (protein aggregates) (HeLa cells [6]) | activity across NCI-60 cell line panel [7] | cytochrome c release from mitochondria [8] | mitochondrial morphology (HeLa cells [9]; HeLa cells, 5 μM, after only 30 minutes) | mitochondrial polarization (JC-1) (HeLa cells [9]; ratiometric sensor JC-1) | LC3II expression relative to LC3I (LC3 in A2780 cells) | protein misfolding via proteasome inhibition, HSP90 inhibition, or ROS generation [10]
1 | Cc1ccc2ccc3ccc(C)nc3c2n1.[C-]#[O+].[C-]#[O+].[C-]#[O+].[Re+] [Neo-Re, [Re(CO)3(dmphen)(OH2)]^+] | 5700 ± 600 | 6 ± 0.2 | 7.7 ± 2.4 | 9000 ± 300 | 4.4 ± 1.3 |  |  |  |  |  |  |  |  |  |  |  |  | 
2 | N.N.[Cl][Pt][Cl] [Cisplatin, cisplatin] | 1300 ± 100 | 12 ± 3 | 5.6 ± 0.5 | 1700 ± 200 | 6.6 ± 0.7 |  |  |  |  |  |  |  |  |  |  |  |  | 
3 | [Re(CO)3(dmphen)(p-tol-ICN)]Cl [TRIP] | 1700 ± 700 | 1.9 ± 1 | 1.4 ± 0.6 | 1900 ± 200 | 1.4 ± 0.2 | substantially less puromycin | 4 | no changes in translation levels | both ATF4 and CHOP were upregulated | induction of eIF2α phosphorylation | 18 | increased significantly | most potent in melanoma and breast cancer cells lines and least effective in lung and renal cancer cell lines | Cytochrome c release occurs on the same time scale as apoptosis induction | significantly rounded and punctate | mitochondria remained functional | large increase in LC3II expression relative to LC3I | no evidence has been found
